According to patent US20230085307A1, “PYRIDAZINONE COMPOUND AND HERBICIDE” (NISSAN CHEMICAL CORPORATION, priority 2019, published 2023):

Assays:
barnyard grass [1] = assay: Test Example 3: herbicidal effect by foliage application, Wagner pot (Table 18, symbol H); format: in vivo, barnyard grass (Echinochloa crus-galli); conditions: 294 g/ha
Procedure, shortened: (§1)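 Plants were sown in alluvial soil held under 0.1–0.5 cm standing water and grown 14 days in a greenhouse at 25–30 °C. An emulsifiable formulation, water-diluted to the set dose, was then sprayed onto the foliage, and effects were scored three weeks later using previously defined criteria.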

Chinese sprangletop = assay: Test Example 3: herbicidal effect by foliage application, Wagner pot (Table 18, symbol D); format: in vivo, chinese sprangletop (Leptochloa chinensis); conditions: 294 g/ha
Procedure, shortened: as §1

rice flat sedge = assay: Test Example 3: herbicidal effect by foliage application, Wagner pot (Table 18, symbol E); format: in vivo, rice flat sedge (Cyperus iria); conditions: 294 g/ha
Procedure, shortened: as §1

southern crabgrass [2] = assay: Test Example 4: herbicidal effect by soil treatment (Table 19, symbol F); format: in vivo, southern crabgrass (Digitaria ciliaris)
Procedure, shortened: (§2)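 Seeds were sown in sterilized diluvial soil and covered with about 1.5 cm of soil. An emulsion formulation diluted with water to a predetermined herbicide amount was sprayed evenly onto the soil surface. Plants grew in a greenhouse at 25° C. to 30° C., and the effect was scored three weeks after application using criteria from an earlier test.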

green foxtail [3] = assay: Test Example 4: herbicidal effect by soil treatment (Table 19, symbol G); format: in vivo, green foxtail (Setaria viridis)
Procedure, shortened: as §2

barnyard grass [4] = assay: Test Example 4: herbicidal effect by soil treatment (Table 19, symbol H); format: in vivo, barnyard grass (Echinochloa crus-galli)
Procedure, shortened: as §2

wild oat [5] = assay: Test Example 4: herbicidal effect by soil treatment (Table 19, symbol I); format: in vivo, wild oat (Avena fatua)
Procedure, shortened: as §2

blackgrass [6] = assay: Test Example 4: herbicidal effect by soil treatment (Table 19, symbol J); format: in vivo, blackgrass (Alopecurus myosuroides)
Procedure, shortened: as §2

Italian ryegrass [7] = assay: Test Example 4: herbicidal effect by soil treatment (Table 19, symbol K); format: in vivo, Italian ryegrass (Lolium multiflorum)
Procedure, shortened: as §2

windgrass [8] = assay: Test Example 4: herbicidal effect by soil treatment (Table 19, symbol L); format: in vivo, windgrass (Apera spica-venti)
Procedure, shortened: as §2

velvetleaf [9] = assay: Test Example 4: herbicidal effect by soil treatment (Table 19, symbol M); format: in vivo, velvetleaf (Abutilon theophrasti)
Procedure, shortened: as §2

redroot pigweed = assay: Test Example 4: herbicidal effect by soil treatment (Table 19, symbol N); format: in vivo, redroot pigweed (Amaranthus retroflexus)
Procedure, shortened: as §2

lambsquarters [10] = assay: Test Example 4: herbicidal effect by soil treatment (Table 19, symbol O); format: in vivo, lambsquarters (Chenopodium album)
Procedure, shortened: as §2

chickweed = assay: Test Example 4: herbicidal effect by soil treatment (Table 19, symbol P); format: in vivo, common chickweed (Stellaria media)
Procedure, shortened: as §2

persian speedwell [11] = assay: Test Example 4: herbicidal effect by soil treatment (Table 19, symbol R); format: in vivo, Persian speedwell (Veronica persica)
Procedure, shortened: as §2

southern crabgrass [12] = assay: Test Example 5: herbicidal effect by foliage application, plastic box (Table 20, symbol F); format: in vivo, southern crabgrass (Digitaria ciliaris); conditions: foliage application
Procedure, shortened: (§3)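 Plants sown in sterilized diluvial soil and grown 14 days in a greenhouse at 25° C to 30° C, then sprayed on the foliage with the compound's emulsion diluted in water to a predetermined herbicide amount. Injury to weeds and crops scored three weeks after application on a visual rating scale.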

green foxtail [13] = assay: Test Example 5: herbicidal effect by foliage application, plastic box (Table 20, symbol G); format: in vivo, green foxtail (Setaria viridis); conditions: foliage application
Procedure, shortened: as §3

barnyard grass [14] = assay: Test Example 5: herbicidal effect by foliage application, plastic box (Table 20, symbol H); format: in vivo, barnyard grass (Echinochloa crus-galli); conditions: foliage application
Procedure, shortened: as §3

wild oat [15] = assay: Test Example 5: herbicidal effect by foliage application, plastic box (Table 20, symbol I); format: in vivo, wild oat (Avena fatua); conditions: foliage application
Procedure, shortened: as §3

blackgrass [16] = assay: Test Example 5: herbicidal effect by foliage application, plastic box (Table 20, symbol J); format: in vivo, blackgrass (Alopecurus myosuroides); conditions: foliage application
Procedure, shortened: as §3

Italian ryegrass [17] = assay: Test Example 5: herbicidal effect by foliage application, plastic box (Table 20, symbol K); format: in vivo, Italian ryegrass (Lolium multiflorum); conditions: foliage application
Procedure, shortened: as §3

windgrass [18] = assay: Test Example 5: herbicidal effect by foliage application, plastic box (Table 20, symbol L); format: in vivo, windgrass (Apera spica-venti); conditions: foliage application
Procedure, shortened: as §3

velvetleaf [19] = assay: Test Example 5: herbicidal effect by foliage application, plastic box (Table 20, symbol M); format: in vivo, velvetleaf (Abutilon theophrasti); conditions: foliage application
Procedure, shortened: as §3

lambsquarters [20] = assay: Test Example 5: herbicidal effect by foliage application, plastic box (Table 20, symbol O); format: in vivo, lambsquarters (Chenopodium album); conditions: foliage application
Procedure, shortened: as §3

false cleavers = assay: Test Example 5: herbicidal effect by foliage application, plastic box (Table 20, symbol Q); format: in vivo, false cleavers (Galium spurium); conditions: foliage application
Procedure, shortened: as §3

persian speedwell [21] = assay: Test Example 5: herbicidal effect by foliage application, plastic box (Table 20, symbol R); format: in vivo, Persian speedwell (Veronica persica); conditions: foliage application
Procedure, shortened: as §3

[22] = 294 g/ha, 3 weeks after application
[23] = amount of applied herbicide 194 g/ha
[24] = 194 g/ha, three weeks after application

COc1ccccc1-c1sc2ccc(F)cc2c1-c1c(O)c(C)nn(C)c1=O [2-024]
herbicidal effect on H (barnyard grass), rating 0-5 (barnyard grass [1]): 4 (Herbicidal rate of 70% or more and less than 90%) | herbicidal effect on D (Chinese sprangletop), rating 0-5 (Chinese sprangletop): 3 (Herbicidal rate of 40% or more and less than 70%) | herbicidal effect on E (rice flat sedge), rating 0-5 (rice flat sedge): 4 (Herbicidal rate of 70% or more and less than 90%) | herbicidal effect rating, F: southern crabgrass (southern crabgrass [2]; 294 g/ha): 3 (Herbicidal rate of 40% or more and less than 70%) | herbicidal effect rating, G: green foxtail (green foxtail [3]; 294 g/ha): 3 (Herbicidal rate of 40% or more and less than 70%) | herbicidal effect rating, H: barnyard grass (barnyard grass [4]; 294 g/ha): 1 (Herbicidal rate of 5% or more and less than 20%) | herbicidal effect rating, I: wild oat (wild oat [5]; 294 g/ha): 0 (Herbicidal rate of 5% or less (almost no effect)) | herbicidal effect rating, J: blackgrass (blackgrass [6]; 294 g/ha): 2 (Herbicidal rate of 20% or more and less than 40%) | herbicidal effect rating, K: Italian ryegrass (Italian ryegrass [7]; 294 g/ha): 0 (Herbicidal rate of 5% or less (almost no effect)) | herbicidal effect rating, L: windgrass (windgrass [8]; 294 g/ha): 0 (Herbicidal rate of 5% or less (almost no effect)) | herbicidal effect rating, M: velvetleaf (velvetleaf [9]; 294 g/ha): 2 (Herbicidal rate of 20% or more and less than 40%) | herbicidal effect rating, N: redroot pigweed (redroot pigweed; 294 g/ha): 5 (Herbicidal rate of 90% or more (almost completely withered)) | herbicidal effect rating, O: lambsquarters (lambsquarters [10]; 294 g/ha): 5 (Herbicidal rate of 90% or more (almost completely withered)) | herbicidal effect rating, P: chickweed (chickweed; 294 g/ha): 3 (Herbicidal rate of 40% or more and less than 70%) | herbicidal effect rating, R: persian speedwell (persian speedwell [11]; 294 g/ha): 4 (Herbicidal rate of 70% or more and less than 90%) | effect on southern crabgrass (F) (southern crabgrass [12]; [22]): 3 (Herbicidal rate of 40% or more and less than 70%) | effect on green foxtail (G) (green foxtail [13]; [22]): 4 (Herbicidal rate of 70% or more and less than 90%) | effect on barnyard grass (H) (barnyard grass [14]; [22]): 5 (Herbicidal rate of 90% or more (almost completely withered)) | effect on wild oat (I) (wild oat [15]; [22]): 4 (Herbicidal rate of 70% or more and less than 90%) | effect on blackgrass (J) (blackgrass [16]; [22]): 5 (Herbicidal rate of 90% or more (almost completely withered)) | effect on Italian ryegrass (K) (Italian ryegrass [17]; [22]): 3 (Herbicidal rate of 40% or more and less than 70%) | effect on windgrass (L) (windgrass [18]; [22]): 4 (Herbicidal rate of 70% or more and less than 90%) | effect on velvetleaf (M) (velvetleaf [19]; [22]): 5 (Herbicidal rate of 90% or more (almost completely withered)) | effect on lambsquarters (O) (lambsquarters [20]; [22]): 5 (Herbicidal rate of 90% or more (almost completely withered)) | effect on false cleavers (Q) (false cleavers; [22]): 5 (Herbicidal rate of 90% or more (almost completely withered)) | effect on persian speedwell (R) (persian speedwell [21]; [22]): 5 (Herbicidal rate of 90% or more (almost completely withered))

Cc1ccc2oc(-c3ccc(F)cc3)c(-c3c(O)c(C)nn(C)c3=O)c2c1 [9-004]
F: southern crabgrass, herbicidal effect grade (southern crabgrass [2]; [23]): 2 (Herbicidal rate of 20% or more and less than 40%) | G: green foxtail, herbicidal effect grade (green foxtail [3]; [23]): 2 (Herbicidal rate of 20% or more and less than 40%) | H: barnyard grass, herbicidal effect grade (barnyard grass [4]; [23]): 3 (Herbicidal rate of 40% or more and less than 70%) | I: wild oat, herbicidal effect grade (wild oat [5]; [23]): 0 (Herbicidal rate of 5% or less (almost no effect)) | J: blackgrass, herbicidal effect grade (blackgrass [6]; [23]): 0 (Herbicidal rate of 5% or less (almost no effect)) | K: Italian ryegrass, herbicidal effect grade (Italian ryegrass [7]; [23]): 4 (Herbicidal rate of 70% or more and less than 90%) | L: windgrass, herbicidal effect grade (windgrass [8]; [23]): 0 (Herbicidal rate of 5% or less (almost no effect)) | M: velvetleaf, herbicidal effect grade (velvetleaf [9]; [23]): 0 (Herbicidal rate of 5% or less (almost no effect)) | N: redroot pigweed, herbicidal effect grade (redroot pigweed; [23]): 3 (Herbicidal rate of 40% or more and less than 70%) | O: lambsquarters, herbicidal effect grade (lambsquarters [10]; [23]): 5 (Herbicidal rate of 90% or more (almost completely withered)) | P: chickweed, herbicidal effect grade (chickweed; [23]): 3 (Herbicidal rate of 40% or more and less than 70%) | R: persian speedwell, herbicidal effect grade (persian speedwell [11]; [23]): 1 (Herbicidal rate of 5% or more and less than 20%) | herbicidal effect on southern crabgrass (F) (southern crabgrass [12]; [24]): 2 (Herbicidal rate of 20% or more and less than 40%) | herbicidal effect on green foxtail (G) (green foxtail [13]; [24]): 3 (Herbicidal rate of 40% or more and less than 70%) | herbicidal effect on barnyard grass (H) (barnyard grass [14]; [24]): 3 (Herbicidal rate of 40% or more and less than 70%) | herbicidal effect on wild oat (I) (wild oat [15]; [24]): 0 (Herbicidal rate of 5% or less (almost no effect)) | herbicidal effect on blackgrass (J) (blackgrass [16]; [24]): 3 (Herbicidal rate of 40% or more and less than 70%) | herbicidal effect on Italian ryegrass (K) (Italian ryegrass [17]; [24]): 5 (Herbicidal rate of 90% or more (almost completely withered)) | herbicidal effect on windgrass (L) (windgrass [18]; [24]): 0 (Herbicidal rate of 5% or less (almost no effect)) | herbicidal effect on velvetleaf (M) (velvetleaf [19]; [24]): 3 (Herbicidal rate of 40% or more and less than 70%) | herbicidal effect on lambsquarters (O) (lambsquarters [20]; [24]): 3 (Herbicidal rate of 40% or more and less than 70%) | herbicidal effect on false cleavers (Q) (false cleavers; [24]): 4 (Herbicidal rate of 70% or more and less than 90%) | herbicidal effect on persian speedwell (R) (persian speedwell [21]; [24]): 5 (Herbicidal rate of 90% or more (almost completely withered))
